As a reminder, the pKi is −log10 of the Ki, conventionally taken in molar units.

pKi: −log10 of the molar value. Counter-ions that a name gives are not always drawn.

The results in this text go back to patent US8242174B2 (priority 2007, dated 2012).

The target of this assay is Lethal factor protease (Bacillus anthracis, UniProt P15917). Briefly: biochemical.
Sequence of Lethal factor protease (P15917 34-809 limits assumed): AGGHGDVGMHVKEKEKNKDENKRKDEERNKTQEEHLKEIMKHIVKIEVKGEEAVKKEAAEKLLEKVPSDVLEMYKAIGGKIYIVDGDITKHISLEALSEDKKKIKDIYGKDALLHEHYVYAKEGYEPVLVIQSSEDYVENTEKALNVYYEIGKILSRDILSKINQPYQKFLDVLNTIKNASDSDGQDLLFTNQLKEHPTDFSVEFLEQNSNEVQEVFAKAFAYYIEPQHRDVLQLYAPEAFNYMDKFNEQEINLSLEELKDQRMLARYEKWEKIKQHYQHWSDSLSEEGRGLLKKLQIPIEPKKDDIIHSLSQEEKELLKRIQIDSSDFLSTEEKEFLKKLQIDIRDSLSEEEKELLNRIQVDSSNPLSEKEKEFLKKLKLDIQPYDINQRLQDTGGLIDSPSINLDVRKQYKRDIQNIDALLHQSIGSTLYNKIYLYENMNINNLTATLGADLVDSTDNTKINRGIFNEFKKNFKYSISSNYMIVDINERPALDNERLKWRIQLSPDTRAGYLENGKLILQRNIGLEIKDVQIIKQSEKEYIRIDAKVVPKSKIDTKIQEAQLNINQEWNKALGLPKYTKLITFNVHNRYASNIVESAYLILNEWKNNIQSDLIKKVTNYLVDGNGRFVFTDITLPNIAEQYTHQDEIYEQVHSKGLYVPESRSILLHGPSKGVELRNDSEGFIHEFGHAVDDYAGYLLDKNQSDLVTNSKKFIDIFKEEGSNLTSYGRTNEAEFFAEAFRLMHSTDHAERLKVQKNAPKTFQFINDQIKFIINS

As to `Cc1cc(NCC(=O)NO)ccc1F` [Compound 166986, 2-(4-Fluoro-3-methyl-phenylamino)-N-hydroxy-acetamide], the pKi was 5.12.
The result for `CCCCC(Nc1ccc(F)c(C)c1)C(=O)NO` (stereo not drawn) [Compound 167162, 2-(4-Fluoro-3-methyl-phenylamino)-hexanoic acid hydroxyamide] reads 5.70.
The result for `CCCCC(Nc1cccc(C)c1)C(=O)NO` (stereo not drawn) [Compound 167170, 2-m-Tolylamino-hexanoic acid hydroxyamide] reads 4.47.
`CCCCC(Nc1cccc(C(C)C)c1)C(=O)NO` (stereo not drawn) [Compound 167183, 2-(3-Isopropyl-phenylamino)-hexanoic acid hydroxyamide]: the pKi was less than 3.52.
The result for `CCCCC(Nc1cccc(CC)c1)C(=O)NO` (stereo not drawn) [Compound 167201, 2-(3-Ethyl-phenylamino)-hexanoic acid hydroxyamide] reads 4.05; that for `CCCCC(Nc1cccc(-c2ccccc2)c1)C(=O)NO` (stereo not drawn) [Compound 167202, 2-(Biphenyl-3-ylamino)-hexanoic acid hydroxyamide], 3.63.
For `CCCCC(Nc1ccccc1)C(=O)NO` (stereo not drawn) [Compound 167210, 2-Phenylamino-hexanoic acid hydroxyamide] the value was 3.69; for `CCCCC(Nc1ccc(F)cc1)C(=O)NO` (stereo not drawn) [Compound 167211, 2-(4-Fluoro-phenylamino)-hexanoic acid hydroxyamide], 4.09; for `CCCCC(Nc1cc(C)cc(C)c1)C(=O)NO` (stereo not drawn) [Compound 167226, 2-(3,5-Dimethyl-phenylamino)-hexanoic acid hydroxyamide], 5.13.
For `Cc1cc(NC(C(=O)NO)c2ccccc2)ccc1F` (stereo not drawn) [Compound 167228, 2-(4-Fluoro-3-methyl-phenylamino)-N-hydroxy-2-phenyl-acetamide] the value was 5.55; for `Cc1cc(NC(Cc2ccc(OC(F)(F)F)cc2)C(=O)NO)ccc1F` (stereo not drawn) [Compound 167233, 2-(4-Fluoro-3-methyl-phenylamino)-N-hydroxy-3-(4-trifluoromethoxy-phenyl)-propionamide], 3.99; for `Cc1cc(NC(C)C(=O)NO)ccc1F` (stereo not drawn) [Compound 167235, 2-(4-Fluoro-3-methyl-phenylamino)-N-hydroxy-propionamide], 5.85.
In the case of `CCCCC(Nc1ccc(C)cc1)C(=O)NO` (stereo not drawn) [Compound 167255, 2-p-Tolylamino-hexanoic acid hydroxyamide], the pKi is 3.53.
As to `CCCCC(Nc1ccc(Cl)cc1)C(=O)NO` (stereo not drawn) [Compound 167256, 2-(4-Chloro-phenylamino)-hexanoic acid hydroxyamide], the pKi is 3.73.
`CCCCC(Nc1cccc(Cl)c1)C(=O)NO` (stereo not drawn) [Compound 167257, 2-(3-Chloro-phenylamino)-hexanoic acid hydroxyamide] had a pKi of 4.21.
For `Cc1cc(N[C@@H](C(=O)NO)C(C)C)cc(C)c1F` [Compound 167264, (R)-2-(4-Fluoro-3,5-dimethyl-phenylamino)-N-hydroxy-3-methyl-butyramide] the value was 5.51; for `Cc1cc(N[C@@H](C(=O)NO)C(C)C)ccc1F` [Compound 167267, (R)-2-(4-Fluoro-3-methyl-phenylamino)-N-hydroxy-3-methyl-butyramide hydrochloride], 4.80; for `Cc1cc(N[C@H](C(=O)NO)C(C)C)ccc1F` [Compound 167268, (S)-2-(4-Fluoro-3-methyl-phenylamino)-N-hydroxy-3-methyl-butyramide hydrochloride], less than 3.52.
Turning to `CCCC[C@@H](Nc1ccc(F)c(C)c1)C(=O)NO` [Compound 167273, (R)-2-(4-Fluoro-3-methyl-phenylamino)-hexanoic acid hydroxyamide], the pKi is 6.15.
The result for `CCCC[C@H](Nc1ccc(F)c(C)c1)C(=O)NO` [Compound 167274, (S)-2-(4-Fluoro-3-methyl-phenylamino)-hexanoic acid hydroxyamide] reads 3.94.
For `CCCCC(Nc1ccc(OC)cc1)C(=O)NO` (stereo not drawn) [Compound 167275, 2-(4-Methoxy-phenylamino)-hexanoic acid hydroxyamide] the value was 4.06; for `CCCCC(Nc1cccc(OC)c1)C(=O)NO` (stereo not drawn) [Compound 167276, 2-(3-Methoxy-phenylamino)-hexanoic acid hydroxyamide], 3.85.
`CCCCC(Nc1cccc(F)c1)C(=O)NO` (stereo not drawn) [Compound 167277, 2-(3-Fluoro-phenylamino)-hexanoic acid hydroxyamide] gave a pKi of 3.87.
The result for `CCCCC(Nc1ccccc1F)C(=O)NO` (stereo not drawn) [Compound 167291, 2-(2-Fluoro-phenylamino)-hexanoic acid hydroxyamide] reads less than 3.52; that for `CCCCC(Nc1ccccc1C)C(=O)NO` (stereo not drawn) [Compound 167292, 2-o-Tolylamino-hexanoic acid hydroxyamide], 3.56.
Take `CCCCC(Nc1ccccc1OC)C(=O)NO` (stereo not drawn) [Compound 167293, 2-(2-Methoxy-phenylamino)-hexanoic acid hydroxyamide]: the pKi was less than 3.52.
The result for `CCCC[C@@H](Nc1cc(C)c(F)c(C)c1)C(=O)NO` [Compound 167294, (R)-2-(4-Fluoro-3,5-dimethyl-phenylamino)-hexanoic acid hydroxyamide] reads 6.28.
For `CCCC[C@H](Nc1cc(C)c(F)c(C)c1)C(=O)NO` [Compound 167295, (S)-2-(4-Fluoro-3,5-dimethyl-phenylamino)-hexanoic acid hydroxyamide] the value was 3.97; for `Cc1cc(N[C@H](C(=O)NO)C(C)C)cc(C)c1F` [Compound 167296, (5)-2-(4-Fluoro-3,5-dimethyl-phenylamino)-N-hydroxy-3-methyl-butyramide], 3.70.
`CCCCC(Nc1ccc(F)c(Cl)c1)C(=O)NO` (stereo not drawn) [Compound 167322, 2-(3-Chloro-4-fluoro-phenylamino)-hexanoic acid hydroxyamide] had a pKi of 4.77.
For `CCCCC(Nc1ccc(OC)c(C)c1)C(=O)NO` (stereo not drawn) [Compound 167324, 2-(4-Methoxy-3-methyl-phenylamino)-hexanoic acid hydroxyamide] the value was 4.71; for `CCCCC(Nc1cc(C)c(OC)c(C)c1)C(=O)NO` (stereo not drawn) [Compound 167325, 2-(4-Methoxy-3,5-dimethyl-phenylamino)-hexanoic acid hydroxyamide], 4.52; for `Cc1cc(N[C@@H](C)C(=O)NO)ccc1F` [Compound 167364, (S)-2-(4-Fluoro-3-methyl-phenylamino)-N-hydroxy-propionamide], 4.06.
For `Cc1cc(N[C@H](Cc2ccccc2)C(=O)NO)cc(C)c1F` [Compound 167378, (R)-2-(4-Fluoro-3,5-dimethyl-phenylamino)-N-hydroxy-3-phenyl-propionamide] the value was 5.15.
The result for `Cc1cc(N[C@H](COCc2ccccc2)C(=O)NO)cc(C)c1F` [Compound 167379, (R)-3-Benzyloxy-2-(4-fluoro-3,5-dimethyl-phenylamino)-N-hydroxy-propionamide] reads 5.84; that for `CCC[C@@H](Nc1cc(C)c(F)c(C)c1)C(=O)NO` [Compound 167391, (R)-2-(4-Fluoro-3,5-dimethyl-phenylamino)-pentanoic acid hydroxyamide], 6.30.
